Test results reported in US10364256B2 (GlaxoSmithKline Intellectual Property Development Limited, priority 2015, dated 2019).

How the values were obtained:
[1] = molecular target: T1, full length Keap1 protein / full length NRF2 protein (Homo sapiens, UniProt Q14145); assay: NRF2-Keap1 TR-FRET Low Protein Assay; format: binding; details: 1.25 nM Keap1 FlagHis and 2.5 nM biotin-NRF2 added
T1 construct: full length NRF2 protein and full length Keap1 protein (Keap1 exists a dimer) are used; His
Procedure, shortened: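 Flag-tagged full-length Keap1 was preincubated with compound (3-fold series) for 2.25 h at 37 °C in Tris pH 8.0/MgCl2/NaCl/BSA/DTT/CHAPS. Biotin-Avi-NRF2 (added at 2.5 nM) was then bound for 1.25 h at 4 °C. Eu-streptavidin/anti-Flag-APC TR-FRET (665/615 nm) was read after 1 h at RT, and pIC50 came from a four-parameter fit.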

[2] = molecular target: T2, Keap1 Kelch domain (321-609) / TAMRA-labeled 16mer NRF2 peptide (ETGE motif) (Homo sapiens, UniProt Q14145); assay: NRF2-Keap1 FP Assay (Keap1 Kelch fluorescence polarization); format: binding; details: 20 nM Keap1 (321-609), 8 nM Tamra labeled peptide
T2 construct: the Kelch domain (321-609) of Keap1 is used
T2 sequence (Q14145 321-609): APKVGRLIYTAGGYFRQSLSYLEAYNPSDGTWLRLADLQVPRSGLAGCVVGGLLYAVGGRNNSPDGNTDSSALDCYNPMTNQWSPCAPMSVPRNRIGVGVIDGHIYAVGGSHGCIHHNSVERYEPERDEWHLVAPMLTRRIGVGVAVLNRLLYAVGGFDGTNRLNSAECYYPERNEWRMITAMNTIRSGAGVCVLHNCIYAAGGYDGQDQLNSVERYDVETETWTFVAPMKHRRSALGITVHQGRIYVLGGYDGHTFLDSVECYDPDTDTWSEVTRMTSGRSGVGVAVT
Procedure, shortened: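 Compound dilutions (3-fold) were incubated 1 hr at room temperature with 20 nM Keap1 Kelch (321-609) and 8 nM TAMRA-labeled ETGE 16mer peptide. Buffer was 50 mM Tris pH 8.0, 100 mM NaCl, 5 mM MgCl2, 1 mM DTT, 2 mM CHAPS, 0.005% BSA. Fluorescence polarization (mP) was normalized to controls and fitted with a four-parameter equation to give pIC50.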

T1 sequence (Q14145 whole entry): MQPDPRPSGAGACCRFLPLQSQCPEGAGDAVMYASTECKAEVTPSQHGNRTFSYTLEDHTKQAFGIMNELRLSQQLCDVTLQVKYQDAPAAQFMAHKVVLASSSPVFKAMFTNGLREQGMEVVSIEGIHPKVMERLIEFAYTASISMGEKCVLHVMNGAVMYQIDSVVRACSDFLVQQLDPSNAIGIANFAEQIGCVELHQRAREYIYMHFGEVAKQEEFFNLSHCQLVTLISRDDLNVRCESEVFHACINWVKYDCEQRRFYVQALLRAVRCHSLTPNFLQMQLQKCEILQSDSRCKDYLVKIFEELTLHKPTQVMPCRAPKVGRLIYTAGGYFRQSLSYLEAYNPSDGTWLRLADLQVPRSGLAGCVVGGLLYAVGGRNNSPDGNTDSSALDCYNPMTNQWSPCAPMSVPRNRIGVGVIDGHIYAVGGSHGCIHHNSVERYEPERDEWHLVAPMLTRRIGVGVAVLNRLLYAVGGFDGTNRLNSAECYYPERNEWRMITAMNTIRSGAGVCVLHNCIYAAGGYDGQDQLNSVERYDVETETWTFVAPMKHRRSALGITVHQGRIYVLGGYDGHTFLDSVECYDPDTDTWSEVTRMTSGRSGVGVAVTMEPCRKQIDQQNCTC

Compound | IC50 [1] [nM] | IC50 [2] [nM]
Cn1cc([C@@H]2C[C@H]2c2c(C(=O)O)cnn2-c2cccc(-c3cccc(OCC4CCCSC4)c3)c2)nn1 (mixture of isomers) [Example 144, 5-((1,2-trans)-2-(1-Methyl-1H-1,2,3-triazol-4-yl)cyclopropyl)-1-(3′-((tetrahydro-2H-thiopyran-3-yl)methoxy)-[1,1′-biphenyl]-3-yl)-1H-pyrazole-4-carboxylic Acid] | 10 to 100 | 10 to 100
Cn1cc([C@@H]2C[C@H]2c2c(C(=O)O)cnn2-c2cccc(-c3cccc(OCC4CCC(F)(F)CC4)c3)c2)nn1 (racemic) [Example 145, 1-(3′-((4,4-Difluorocyclohexyl)methoxy)-[1,1′-biphenyl]-3-yl)-5-((1,2-trans)-2-(1-methyl-1H-1,2,3-triazol-4-yl)cyclopropyl)-1H-pyrazole-4-carboxylic acid] | 10 to 100 | 10 to 100
Cn1cc([C@@H]2C[C@H]2c2c(C(=O)O)cnn2-c2cccc(-c3cccc(OC[C@H]4CC[C@H](C(F)(F)F)CC4)c3)c2)nn1 (racemic) [Example 146, 5-((1,2-trans)-2-(1-Methyl-1H-1,2,3-triazol-4-yl)cyclopropyl)-1-(3′-(((1r,4R)-4-(trifluoromethyl)cyclohexyl)methoxy)-[1,1′-biphenyl]-3-yl)-1H-pyrazole-4-carboxylic acid] | 10 to 100 | 10 to 100
Cn1cc([C@@H]2C[C@H]2c2c(C(=O)O)cnn2-c2cccc(-c3cccc(OCC4CCCC(C(F)(F)F)C4)c3)c2)nn1 (mixture of isomers) [Example 147, 5-((1,2-trans)-2-(1-Methyl-1H-1,2,3-triazol-4-yl)cyclopropyl)-1-(3′-((3-(trifluoromethyl)cyclohexyl)methoxy)-[1,1′-biphenyl]-3-yl)-1H-pyrazole-4-carboxylic acid] | 10 to 100 | 100 to 1000
Cn1cc([C@@H]2C[C@H]2c2c(C(=O)O)cnn2-c2cccc(-c3cccc(OCC4CCCCC4C(F)(F)F)c3)c2)nn1 (mixture of isomers) [Example 148, 5-((1,2-trans)-2-(1-Methyl-1H-1,2,3-triazol-4-yl)cyclopropyl)-1-(3′-((2-(trifluoromethyl)cyclohexyl)methoxy)-[1,1′-biphenyl]-3-yl)-1H-pyrazole-4-carboxylic acid] | < 10 | 10 to 100
Cn1cc([C@@H]2C[C@H]2c2c(C(=O)O)cnn2-c2cccc(-c3cccc(OCC4CCSCC4)c3)c2)nn1 (racemic) [Example 149, 5-((1,2-trans)-2-(1-Methyl-1H-1,2,3-triazol-4-yl)cyclopropyl)-1-(3′-((tetrahydro-2H-thiopyran-4-yl)methoxy)-[1,1′-biphenyl]-3-yl)-1H-pyrazole-4-carboxylic acid] | 10 to 100 | 100 to 1000
CCC1CCC(COc2cccc(-c3cccc(-n4ncc(C(=O)O)c4[C@@H]4C[C@H]4c4cn(C)nn4)c3)c2)CC1 (mixture of isomers) [Example 150, 1-(3′-((4-Ethylcyclohexyl)methoxy)-[1,1′-biphenyl]-3-yl)-5-((1,2-trans)-2-(1-methyl-1H-1,2,3-triazol-4-yl)cyclopropyl)-1H-pyrazole-4-carboxylic acid] | 10 to 100 | 100 to 1000
Cn1cc([C@@H]2C[C@H]2c2c(C(=O)O)cnn2-c2cccc(-c3cccc(OCC4CCCCC4)c3F)c2)nn1 (racemic) [Example 152, 1-(3′-(Cyclohexylmethoxy)-2′-fluoro-[1,1′-biphenyl]-3-yl)-5-((1,2-trans)-2-(1-methyl-1H-1,2,3-triazol-4-yl)cyclopropyl)-1H-pyrazole-4-carboxylic Acid] | 10 to 100 | 10 to 100
Cn1cc([C@@H]2C[C@H]2c2c(C(=O)O)cnn2-c2cccc(-c3cccc(OC(C4CCCCC4)C(F)(F)F)c3)c2)nn1 (mixture of isomers) [Example 157, 1-(3′-(1-Cyclohexyl-2,2,2-trifluoroethoxy)-[1,1′-biphenyl]-3-yl)-5-((1,2-trans)-2-(1-methyl-1H-1,2,3-triazol-4-yl)cyclopropyl)-1H-pyrazole-4-carboxylic Acid] | 10 to 100 | 100 to 1000
CO[C@H]1CC[C@H](COc2cccc(-c3cccc(-n4ncc(C(=O)O)c4[C@H]4C[C@@H]4c4cn(C)nn4)c3)c2)CC1 (racemic) [Example 176, 1-(3′-(((1R,4S)-4-Methoxycyclohexyl)methoxy)-[1,1′-biphenyl]-3-yl)-5-((1,2-trans)-2-(1-methyl-1H-1,2,3-triazol-4-yl)cyclopropyl)-1H-pyrazole-4-carboxylic acid] | 10 to 100 | 10 to 100
COC1CCCCC1COc1cccc(-c2cccc(-n3ncc(C(=O)O)c3[C@H]3C[C@@H]3c3cn(C)nn3)c2)c1 (mixture of isomers) [Example 177, 1-(3′-((2-Methoxycyclohexyl)methoxy)-[1,1′-biphenyl]-3-yl)-5-((1,2-trans)-2-(1-methyl-1H-1,2,3-triazol-4-yl)cyclopropyl)-1H-pyrazole-4-carboxylic acid] | 100 to 1000 | 100 to 1000
COC1CCCC(COc2cccc(-c3cccc(-n4ncc(C(=O)O)c4[C@H]4C[C@@H]4c4cn(C)nn4)c3)c2)C1 (mixture of isomers) [Example 178, 1-(3′-((3-Methoxycyclohexyl)methoxy)-[1,1′-biphenyl]-3-yl)-5-((1,2-trans)-2-(1-methyl-1H-1,2,3-triazol-4-yl)cyclopropyl)-1H-pyrazole-4-carboxylic acid] | 10 to 100 | 10 to 100
Cn1cc([C@H]2C[C@@H]2c2c(C(=O)O)cnn2-c2cccc(-c3cccc(OC[C@H]4CC[C@H](Cl)CC4)c3)c2)nn1 (racemic) [Example 185, 1-(3′-((4-Chlorocyclohexyl)methoxy)-[1,1′-biphenyl]-3-yl)-5-((1,2-trans)-2-(1-methyl-1H-1,2,3-triazol-4-yl)cyclopropyl)-1H-pyrazole-4-carboxylic Acid] | 10 to 100 | 100 to 1000
Cn1cc([C@H]2C[C@@H]2c2c(C(=O)O)cnn2-c2cccc(-c3cccc(OCC4CCCC(Cl)C4)c3)c2)nn1 (mixture of isomers) [Example 187, 1-(3′-((3-chlorocyclohexyl)methoxy)-[1,1′-biphenyl]-3-yl)-5-((1,2-trans)-2-(1-methyl-1H-1,2,3-triazol-4-yl)cyclopropyl)-1H-pyrazole-4-carboxylic acid] | 10 to 100 | 100 to 1000
CCn1cc([C@H]2C[C@@H]2c2c(C(=O)O)cnn2-c2cccc(-c3cccc(OC(C)C4CCCCC4)c3)c2)nn1 (mixture of isomers) [Example 192, 1-(3′-(1-cyclohexylethoxy)-[1,1′-biphenyl]-3-yl)-5-((1,2-trans)-2-(1-ethyl-1H-1,2,3-triazol-4-yl)cyclopropyl)-1H-pyrazole-4-carboxylic acid] | 10 to 100 | 10 to 100
CCC[C@@H]1CCCCN1C(=O)c1cccc(-c2cccc(-n3ncc(C(=O)O)c3[C@H]3C[C@@H]3c3cn(CC)nn3)c2)c1 (racemic) [Example 201, 5-((1,2-trans)-2-(1-Ethyl-1H-1,2,3-triazol-4-yl)cyclopropyl)-1-(3′-((R)-2-propylpiperidine-1-carbonyl)-[1,1′-biphenyl]-3-yl)-1H-pyrazole-4-carboxylic acid] | < 10 | 10 to 100
CC(Oc1cccc(-c2cccc(-n3ncc(C(=O)O)c3[C@H]3C[C@@H]3c3cn(C)nn3)c2)c1)C1CCCCCC1 (mixture of isomers) [Example 230, 1-(3′-(1-Cycloheptylethoxy)-[1,1′-biphenyl]-3-yl)-5-((1,2-trans)-2-(1-methyl-1H-1,2,3-triazol-4-yl)cyclopropyl)-1H-pyrazole-4-carboxylic acid] | 10 to 100 | 10 to 100
Cn1cc([C@H]2C[C@@H]2c2c(C(=O)O)cnn2-c2cccc(-c3cccc(OCc4ccc(-c5ccccc5)cc4)c3)c2)nn1 (racemic) [Example 237, 1-(3′-([1,1′-Biphenyl]-4-ylmethoxy)-[1,1′-biphenyl]-3-yl)-5-((1,2-trans)-2-(1-methyl-1H-1,2,3-triazol-4-yl)cyclopropyl)-1H-pyrazole-4-carboxylic Acid] | 100 to 1000 | 100 to 1000
Cn1cc([C@H]2C[C@@H]2c2c(C(=O)O)cnn2-c2cccc(-c3cccc(OCc4cccc(-c5ccccc5)c4)c3)c2)nn1 (racemic) [Example 238, 1-(3′-([1,1′-Biphenyl]-3-ylmethoxy)-[1,1′-biphenyl]-3-yl)-5-((1,2- trans)-2-(1-methyl-1H-1,2,3-triazol-4-yl)cyclopropyl)-1H-pyrazole-4-carboxylic acid] | 100 to 1000 | 100 to 1000
CC(Oc1cccc(-c2cccc(-n3ncc(C(=O)O)c3[C@H]3C[C@@H]3c3cn(C)nn3)c2)c1)c1cccc(-c2ccccc2)c1 (mixture of isomers) [Example 239, 1-(3′-(1-([1,1′-Biphenyl]-3-yl)ethoxy)-[1,1′-biphenyl]-3-yl)-5-((1,2-trans)-2-(1-methyl-1H-1,2,3-triazol-4-yl)cyclopropyl)-1H-pyrazole-4-carboxylic Acid] | 100 to 1000 | 100 to 1000
CC(Oc1cccc(-c2cccc(-n3ncc(C(=O)O)c3[C@H]3C[C@@H]3c3cn(C)nn3)c2)c1)c1ccc(-c2ccccc2)cc1 (mixture of isomers) [Example 240, 1-(3′-(1-([1,1′-Biphenyl]-4-yl)ethoxy)-[1,1′-biphenyl]-3-yl)-5-((1,2- trans)-2-(1-methyl-1H-1,2,3-triazol-4-yl)cyclopropyl)-1H-pyrazole-4-carboxylic acid] | 100 to 1000 | 100 to 1000
